In US20240360145A1, “PYRIMIDINE-2,4-DIAMINE DERIVATIVES AS WELL AS PREPARATION METHOD THEREFOR AND USE THEREOF” (LISEN THERAPEUTICS, INC., priority 2022, published 2024):

Assays:
NCI-H146 cells = test: Cell viability IC50 (CCK-8), small cell lung cancer cell line H146; assay type: cell-based; details: Homo sapiens, NCI-H146; H146, CCK-8
Protocol: (§1) Small cell lung cancer cell lines DMS114, NCI-H1688, NCI-H82, NCI-H146, and NCI-H446 cells were cultured in RPMI-1640 medium containing 10% fetal bovine serum and 1% penicillin-streptomycin. All the cells were cultured in a constant temperature incubator containing 5% CO2 at 37° C.
(§2) Small cell lung cancer is a highly heterogeneous malignant tumor, and its clinical treatment is mainly based on traditional chemotherapy (mainly platinum medicaments and etoposide). In order to study the anti-tumor activity of the compounds of the present disclosure in small cell lung cancer, the CCK-8 method was used to investigate the cell viability IC50 of compound 8 for five small cell lung cancer cell lines.

NCI-H1688 cells = test: Cell viability IC50 (CCK-8), small cell lung cancer cell line H1688; assay type: cell-based; details: NCI-H1688; H1688, CCK-8
Protocol: as §1, §2

PE039 primary cells = test: Cell viability IC50 (CCK-8), primary cells PE039 from small cell lung cancer pleural effusion; assay type: cell-based; details: PE039, CCK-8
Protocol: (§3) (1) The pleural effusion was poured into a 15 mL or 50 mL of sterilized centrifuge tube for centrifugation. Centrifugation conditions: 800 to 1000 rpm, 5 min.
(§4) (2) The precipitate was resuspended and washed for 2 to 3 times with PBS.
(§5) (3) The cell precipitate was resuspended with complete culture medium (α-MEM medium containing 10% fetal bovine serum and 2% penicillin-streptomycin), and the flocculent matter in the pleural effusion was removed using a sterilized cell sieve.
(§6) (4) The red blood cells in the pleural effusion were removed with lymphocyte separation fluid, and the tumor cells and lymphocyte components were collected. The number of tumor cells was observed under a microscope, and the cells were inoculated.
(§7) (5) After 24 hours, the supernatant was discarded, and fresh culture medium was added for further culture.
(§8) (6) The cell growth status was observed, and it was determined based on the cell status whether the medium was required to be continuously changed to remove blood cells. When the cells grew to a density of 80% to 90%, the cells were preserved.
(§9) (1) Primary cells from lung cancer pleural effusion within 5 generations were cultured to the logarithmic growth phase. […] After centrifugation at room temperature, the supernatant was discarded, and the cell precipitate was resuspended with fresh complete culture medium. After counting, the cells were placed at room temperature for later use. The cells were inoculated into a 384-well plate at a density of 2000 cells/well with a volume of 40 μl/well. The wells at the outermost circle of the plate were not inoculated with cells, and instead, added with sterile water to reduce evaporation of the culture medium.
(§10) (2) After overnight culture of the cells, the medium was discarded, and a fresh medium containing different concentrations of compounds was added at 200 μl/well. The dilution method of the compound was as follows: first the compound with the highest concentration of 10 μM was prepared, and then the compound was diluted for 3 times in sequence. […] At the same time, a blank control group was set up, in which only an equal volume of culture medium was added without adding cells. Five replicate wells were set up for each group. The cells were placed in the incubator for further culture.
(§11) (3) After 72 hours, 8 μl of CCK-8 solution, which was double-diluted with 10 mM PBS, was added to each well, and the cells were shaken and placed in an incubator at 37° C. for further culture for 2 hours.
(4) The light absorbance value at 450 nm was read using a microplate reader, and the IC50 was calculated according to the absorbance value. The calculation method was the same as above. […]

PE052 primary cells = test: Cell viability IC50 (CCK-8), primary cells PE052 from small cell lung cancer pleural effusion; assay type: cell-based; details: PE052, CCK-8
Protocol: as §3, §4, §5, §6, §7, §8, §9, §10, §11
(4) The light absorbance value at 450 nm was read using a microplate reader, and the IC50 was calculated according to the absorbance value. The calculation method was the same as above.
(1) Sample information: PE039, PE052, and PE062 were all primary cell samples from pleural effusion of patients with small cell lung cancer, and LT015 was a primary cell sample from bronchoscopic biopsy of a patient with small cell lung cancer.
(2) CCK-8 detection was used to detect the IC50 values of different medicaments (compounds).

SW620 (colon cancer) = test: Cell viability IC50 (CellTiter-Glo), SW620; assay type: cell-based; details: Homo sapiens, SW-620, SW620, 72 hours
Protocol: (§12) The cancer cell lines were cultured to the logarithmic growth phase according to conventional culture methods, and the cells were inoculated into a 384-well plate at a density of 2,000 cells/well in a volume of 40 μl/well. The concentrations of added compounds were: […], 1.67 μM, 0.56 μM, 0.19 μM, 0.062 μM, 0.021 μM, 0.0069 μM, 0.0023 μM, 0.00076 μM, and 0 μM. After 72 hours, cell viability was detected using the CellTiter-Glo™ Detection Kit.

HT29 (colon cancer) = test: Cell viability IC50 (CellTiter-Glo), HT29; assay type: cell-based; details: Homo sapiens, HT-29, HT29, 72 hours
Protocol: as §12

ASH-3 (thyroid cancer) = test: Cell viability IC50 (CellTiter-Glo), ASH-3; assay type: cell-based; details: ASH-3, 72 hours
Protocol: as §12

MCF-7 (breast cancer) = test: Cell viability IC50 (CellTiter-Glo), MCF-7; assay type: cell-based; details: Homo sapiens, MCF7, MCF-7, 72 hours
Protocol: as §12

Hela (cervical cancer) = test: Cell viability IC50 (CellTiter-Glo), Hela; assay type: cell-based; details: Homo sapiens, 72 hours
Protocol: as §12

RT-4 (bladder cancer) = test: Cell viability IC50 (CellTiter-Glo), RT-4; assay type: cell-based; details: RT-4, 72 hours
Protocol: as §12

OV-90 (ovarian cancer) = test: Cell viability IC50 (CellTiter-Glo), OV-90; assay type: cell-based; details: Homo sapiens, OV-90, 72 hours
Protocol: as §12

[1] = test system: MiaPaca-2 (pancreatic cancer); test: Cell viability IC50 (CellTiter-Glo), MiaPaca-2; assay type: cell-based; details: Homo sapiens, MIA PaCa-2, MiaPaca-2, 72 hours
Protocol: as §12

AGS (gastric cancer) = test: Cell viability IC50 (CellTiter-Glo), AGS; assay type: cell-based; details: 72 hours
Protocol: as §12

[2] = test system: primary cells from pleural effusion of patients with small cell lung cancer; test: Cell viability IC50 (CCK-8), summary over primary cells from pleural effusion of patients with small cell lung cancer; assay type: cell-based; details: Homo sapiens; range over primary cells of patients with small cell lung cancer (Table 4)
Protocol: (1) Primary cells from lung cancer pleural effusion within 5 generations were cultured to the logarithmic growth phase. When the confluence reached about 90%, the cells were digested with 0.25% trypsin, and complete culture medium was added to collect the cells. After centrifugation at room temperature, the supernatant was discarded, and the cell precipitate was resuspended with fresh complete culture medium. After counting, the cells were placed at room temperature for later use. The cells were inoculated into a 384-well plate at a density of 2000 cells/well with a volume of 40 μl/well. The wells at the outermost circle of the plate were not inoculated with cells, and instead, added with sterile water to reduce evaporation of the culture medium.
as §10, with “Five replicate wells were set up for each group. The cells were placed in the incubator for further culture.” left out
(4) The light absorbance value at 450 nm was read using a microplate reader, and the IC50 was calculated according to the absorbance value. […]

[3] = test system: various cancer cell lines; test: Cell viability IC50 (CellTiter-Glo), summary over various cancer cell lines; assay type: cell-based
Protocol: as §12

NCI-H1975 cells = test: Cell viability IC50 (MTT), Gefitinib-resistant NCI-H1975 cells; details: Homo sapiens, NCI-H1975, 72 h, read-out: cell viability IC50
Protocol: 1% sodium pyruvate was additionally added when culturing NCI-H1975 cells. All the cells were cultured in a constant temperature incubator containing 5% CO2 at 37° C.
(1) The cells were cultured to the logarithmic growth phase. […] After centrifugation at room temperature, the supernatant was discarded, and the cell precipitate was resuspended with fresh complete medium. After counting, the cells were placed at room temperature for later use.
(2) The cells were inoculated into a 96-well plate at a density of 4,000 cells/well with a volume of 100 μl/well. The wells at the outermost circle of the plate were not inoculated with cells, and instead, added with sterile water to reduce evaporation of the culture medium.
(3) After overnight culture of the cells, the medium was discarded, and a fresh medium containing different concentrations of compounds was added at 200 μl/well. The dilution method of the compound was as follows: first the compound with the highest concentration of 10 μM was prepared, and then the compound was diluted for 3 times in sequence. […] At the same time, a blank control group was set up, in which only an equal volume of culture medium was added without adding cells. Six replicate wells were set up for each group. The cells were placed in the incubator for further culture.
(4) After 72 hours, 20 μl of MTT solution (5 mg/ml) sterilized by filtration through a 0.22 m filter membrane was added to each well, and the cells were cultured in an incubator at 37° C. for another 4 hours.
(6) IC50 of the compounds for different cells was calculated based on the light absorption value of each group. Specifically, the absorbance value under treatment with different concentrations of compounds was first subtracted from the absorbance value of the blank well, and then the absorbance value of the 0 μM group was taken as 100% to calculate the cell survival rate after treatment with different concentrations of compounds. That is, survival rate=((ODexperimental well−ODblank control)/(ODnegative control−ODblank control))×100%. IC50 values were calculated based on the survival rate and concentration of the compound.

Compound: CN1CC2CCC(C1)N2Cc1ccc(Nc2ncc(Cl)c(Nc3ccccc3S(=O)(=O)N(C)C)n2)cc1 [Compound 8, 2-((5-chloro-2-((4-((3-methyl-3,8-diazabicyclo[3.2.1]octan-8-yl)methyl)phenyl)amino)pyrimidin-4-yl)amino)-N,N-dimethylbenzenesulfonamide]
- IC50 (NCI-H146 cells): 9.92 nM
- IC50 (NCI-H1688 cells): 5.01 nM
- IC50 (PE039 primary cells): 51.5 nM
- IC50 (PE052 primary cells): 59.9 nM
- IC50 (SW620 (colon cancer)): 101 nM
- IC50 (HT29 (colon cancer)): 190 nM
- IC50 (ASH-3 (thyroid cancer)): 44 nM
- IC50 (MCF-7 (breast cancer)): 52.8 nM
- IC50 (Hela (cervical cancer)): 123 nM
- IC50 (RT-4 (bladder cancer)): 54 nM
- IC50 (OV-90 (ovarian cancer)): 103 nM
- IC50 [1]: 13.2 nM
- IC50 (AGS (gastric cancer)): 36.2 nM
- IC50 [2]: 2.7 to 59.9 nM
- IC50 ([3]; colon cancer, liver cancer, cervical cancer, ovarian cancer, and esophageal cancer): < 200 nM
- IC50 ([3]; thyroid cancer, breast cancer, bladder cancer, glioma, pancreatic cancer, melanoma, and gastric cancer): < 100 nM
- IC50 (NCI-H1975 cells): 55.2 nM
